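48-hour exposure; five concentrations; linearly interpolated endpoints. Abbreviation: GI50, concentration required for 50% inhibition of growth. TGI: concentration producing complete growth inhibition.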
Legend:
Experiment in all cases: NCI-60 cell line screen, 48 h
786-0 renal = tested on: 786-0 renal
A498 renal = tested on: A498 renal
A549 NSCLC = tested on: A549 NSCLC
ACHN renal = tested on: ACHN renal
BT-549 breast = tested on: BT-549 breast
CAKI-1 renal = tested on: CAKI-1 renal
CCRF-CEM leukemia = tested on: CCRF-CEM leukemia
COLO 205 colon = tested on: COLO 205 colon
DU-145 prostate = tested on: DU-145 prostate
EKVX NSCLC = tested on: EKVX NSCLC
HCC-2998 colon = tested on: HCC-2998 colon
HCT-116 colon = tested on: HCT-116 colon
HCT-15 colon = tested on: HCT-15 colon
HL-60(TB) leukemia = tested on: HL-60(TB) leukemia
HOP-62 NSCLC = tested on: HOP-62 NSCLC
HOP-92 NSCLC = tested on: HOP-92 NSCLC
HS 578T breast = tested on: HS 578T breast
HT29 colon = tested on: HT29 colon
IGROV1 ovarian = tested on: IGROV1 ovarian
K-562 leukemia = tested on: K-562 leukemia
KM12 colon = tested on: KM12 colon
LOX IMVI melanoma = tested on: LOX IMVI melanoma
M14 melanoma = tested on: M14 melanoma
MALME-3M melanoma = tested on: MALME-3M melanoma
MCF7 breast = tested on: MCF7 breast
MDA-MB-231 breast = tested on: MDA-MB-231 breast
MDA-MB-435 = tested on: MDA-MB-435
MDA-MB-468 breast = tested on: MDA-MB-468 breast
MOLT-4 leukemia = tested on: MOLT-4 leukemia
NCI-H226 lung = tested on: NCI-H226 lung
NCI-H23 lung = tested on: NCI-H23 lung
NCI-H460 lung = tested on: NCI-H460 lung
NCI-H522 lung = tested on: NCI-H522 lung
NCI/ADR-RES ovarian = tested on: NCI/ADR-RES ovarian
OVCAR-3 ovarian = tested on: OVCAR-3 ovarian
OVCAR-4 ovarian = tested on: OVCAR-4 ovarian
OVCAR-5 ovarian = tested on: OVCAR-5 ovarian
OVCAR-8 ovarian = tested on: OVCAR-8 ovarian
PC-3 prostate = tested on: PC-3 prostate
RPMI-8226 leukemia = tested on: RPMI-8226 leukemia
SF-268 CNS = tested on: SF-268 CNS
SF-295 CNS = tested on: SF-295 CNS
SF-539 CNS = tested on: SF-539 CNS
SK-MEL-2 melanoma = tested on: SK-MEL-2 melanoma
SK-MEL-28 melanoma = tested on: SK-MEL-28 melanoma
SK-MEL-5 melanoma = tested on: SK-MEL-5 melanoma
SK-OV-3 ovarian = tested on: SK-OV-3 ovarian
SN12C renal = tested on: SN12C renal
SNB-19 CNS = tested on: SNB-19 CNS
SNB-75 CNS = tested on: SNB-75 CNS
SR leukemia = tested on: SR leukemia
SW-620 colon = tested on: SW-620 colon
T-47D breast = tested on: T-47D breast
TK-10 renal = tested on: TK-10 renal
U251 CNS = tested on: U251 CNS
UACC-257 melanoma = tested on: UACC-257 melanoma
UACC-62 melanoma = tested on: UACC-62 melanoma
UO-31 renal = tested on: UO-31 renal

COc1cc(/C=C/C(=O)c2ccccc2)ccc1Oc1nc(Nc2ccc(F)cc2)nc(N(C)C)n1
GI50 (786-0 renal): 20.5 µM
TGI (786-0 renal): 87 µM
GI50 (A498 renal): 27 µM
TGI (A498 renal): > 100 µM
GI50 (A549 NSCLC): 11.7 µM
TGI (A549 NSCLC): > 100 µM
GI50 (ACHN renal): 8.29 µM
TGI (ACHN renal): 37.4 µM
GI50 (BT-549 breast): 12 µM
TGI (BT-549 breast): 28.6 µM
GI50 (CAKI-1 renal): 5.72 µM
TGI (CAKI-1 renal): > 100 µM
GI50 (CCRF-CEM leukemia): 3.38 µM
TGI (CCRF-CEM leukemia): > 100 µM
GI50 (COLO 205 colon): 15.1 µM
TGI (COLO 205 colon): > 100 µM
GI50 (DU-145 prostate): 27.3 µM
TGI (DU-145 prostate): > 100 µM
GI50 (EKVX NSCLC): 4.73 µM
TGI (EKVX NSCLC): > 100 µM
GI50 (HCC-2998 colon): 12.9 µM
TGI (HCC-2998 colon): 76.5 µM
GI50 (HCT-116 colon): 3.21 µM
TGI (HCT-116 colon): 12.9 µM
GI50 (HCT-15 colon): 3.31 µM
TGI (HCT-15 colon): 12.9 µM
GI50 (HL-60(TB) leukemia): 8.38 µM
TGI (HL-60(TB) leukemia): 67.1 µM
GI50 (HOP-62 NSCLC): 26.6 µM
TGI (HOP-62 NSCLC): > 100 µM
GI50 (HOP-92 NSCLC): 2.08 µM
TGI (HOP-92 NSCLC): 12.9 µM
GI50 (HS 578T breast): 5.44 µM
TGI (HS 578T breast): 56.4 µM
GI50 (HT29 colon): 4.36 µM
TGI (HT29 colon): 19 µM
GI50 (IGROV1 ovarian): 18.7 µM
TGI (IGROV1 ovarian): > 100 µM
GI50 (K-562 leukemia): 3.57 µM
TGI (K-562 leukemia): > 100 µM
GI50 (KM12 colon): 14.9 µM
TGI (KM12 colon): > 100 µM
GI50 (LOX IMVI melanoma): 1.6 µM
TGI (LOX IMVI melanoma): 3.15 µM
GI50 (M14 melanoma): 13 µM
TGI (M14 melanoma): 37.8 µM
GI50 (MALME-3M melanoma): 15.9 µM
TGI (MALME-3M melanoma): 39.6 µM
GI50 (MCF7 breast): 3.08 µM
TGI (MCF7 breast): 15 µM
GI50 (MDA-MB-231 breast): 6.92 µM
TGI (MDA-MB-231 breast): 21.9 µM
GI50 (MDA-MB-435): 7.39 µM
TGI (MDA-MB-435): 28.4 µM
GI50 (MDA-MB-468 breast): 3.21 µM
TGI (MDA-MB-468 breast): 19.9 µM
GI50 (MOLT-4 leukemia): 2.56 µM
TGI (MOLT-4 leukemia): > 100 µM
GI50 (NCI-H226 lung): 4.94 µM
TGI (NCI-H226 lung): 21.5 µM
GI50 (NCI-H23 lung): 12.6 µM
TGI (NCI-H23 lung): 51.4 µM
GI50 (NCI-H460 lung): 9.14 µM
TGI (NCI-H460 lung): 30 µM
GI50 (NCI-H522 lung): 5.15 µM
TGI (NCI-H522 lung): 59.2 µM
GI50 (NCI/ADR-RES ovarian): 7.04 µM
TGI (NCI/ADR-RES ovarian): 22.6 µM
GI50 (OVCAR-3 ovarian): 11.8 µM
TGI (OVCAR-3 ovarian): > 100 µM
GI50 (OVCAR-4 ovarian): 5.85 µM
TGI (OVCAR-4 ovarian): 41.7 µM
GI50 (OVCAR-5 ovarian): 13.9 µM
TGI (OVCAR-5 ovarian): 48.3 µM
GI50 (OVCAR-8 ovarian): 5.9 µM
TGI (OVCAR-8 ovarian): 26.5 µM
GI50 (PC-3 prostate): 10 µM
TGI (PC-3 prostate): > 100 µM
GI50 (RPMI-8226 leukemia): 2.83 µM
TGI (RPMI-8226 leukemia): 33.9 µM
GI50 (SF-268 CNS): 12.2 µM
TGI (SF-268 CNS): > 100 µM
GI50 (SF-295 CNS): 6.89 µM
TGI (SF-295 CNS): 48.5 µM
GI50 (SF-539 CNS): 13.8 µM
TGI (SF-539 CNS): 26.7 µM
GI50 (SK-MEL-2 melanoma): 4.68 µM
TGI (SK-MEL-2 melanoma): 20.7 µM
GI50 (SK-MEL-28 melanoma): 12.2 µM
TGI (SK-MEL-28 melanoma): 32.1 µM
GI50 (SK-MEL-5 melanoma): 6.21 µM
TGI (SK-MEL-5 melanoma): 34.2 µM
GI50 (SK-OV-3 ovarian): 48.6 µM
TGI (SK-OV-3 ovarian): > 100 µM
GI50 (SN12C renal): 7.32 µM
TGI (SN12C renal): 22.1 µM
GI50 (SNB-19 CNS): 10.2 µM
TGI (SNB-19 CNS): 27.6 µM
GI50 (SNB-75 CNS): 4.7 µM
TGI (SNB-75 CNS): 95.9 µM
GI50 (SR leukemia): 2.9 µM
TGI (SR leukemia): > 100 µM
GI50 (SW-620 colon): 1.81 µM
TGI (SW-620 colon): 3.97 µM
GI50 (T-47D breast): 3.36 µM
TGI (T-47D breast): > 100 µM
GI50 (TK-10 renal): 18 µM
TGI (TK-10 renal): > 100 µM
GI50 (U251 CNS): 2.84 µM
TGI (U251 CNS): 13.4 µM
GI50 (UACC-257 melanoma): 6.44 µM
TGI (UACC-257 melanoma): 77.2 µM
GI50 (UACC-62 melanoma): 4.99 µM
TGI (UACC-62 melanoma): 24.2 µM
GI50 (UO-31 renal): 4.4 µM
TGI (UO-31 renal): > 100 µM

Source: PubChem BioAssay (NCI)
